Structures can show the parent of a compound that is named as a salt.
Test system: longitudinal muscle of guinea pig ileum
Assay: Antagonism of the contraction elicited by SPOMe (substance P methyl ester) on guinea pig ileum longitudinal muscle (isometric contraction)
Conditions: Cavia porcellus, compound at 1.0 μM, 0.1μM SPOMe

| Compound | inhibition at 1 µM [%] |
| --- | --- |
| O=[N+]([O-])c1cccc(CO[C@H]2C3CCN(CC3)[C@H]2C(c2ccccc2)c2ccccc2)c1 (relative stereo) [Example 1, cis-2-(Diphenylmethyl)-3-(3-nitrobenzyloxy)-1-azabicyclo[2.2.2]octane oxalate] | > 70 |
| FC(F)(F)c1ccccc1CO[C@H]1C2CCN(CC2)[C@H]1C(c1ccccc1)c1ccccc1 (relative stereo) [Example 2, cis-2-(Diphenylmethyl)-3-[2-(trifluoromethyl)benzyloxy]-1-azabicyclo[2.2.2]octane oxalate] | > 70 |
| Clc1cccc(CO[C@H]2C3CCN(CC3)[C@H]2C(c2ccccc2)c2ccccc2)c1 (relative stereo) [Example 4, cis-3-(3-Chlorobenzyloxy)-2-(diphenylmethyl)-1-azabicyclo[2.2.2]octane oxalate] | > 70 |
| Fc1cc(F)cc(CO[C@H]2C3CCN(CC3)[C@H]2C(c2ccccc2)c2ccccc2)c1 (relative stereo) [Example 7, cis-3-(3,5-Difluorobenzyloxy)-2-(diphenylmethyl)-1-azabicyclo[2.2.2]octane oxalate] | > 70 |
| COc1ccc(CO[C@H]2C3CCN(CC3)[C@H]2C(c2ccccc2)c2ccccc2)cc1 (relative stereo) [Example 8, cis-2-(Diphenylmethyl)-3-(4-methoxybenzyloxy)-1-azabicyclo[2.2.2]octane oxalate] | > 70 |

From US5242930A, “Azabicyclic compounds, pharmaceutical compositions containing them and their use in therapy” (Merck Sharp & Dohme Ltd., priority 1991, dated 1993)
